PubChem BioAssay (NCI)
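Five compound concentrations were applied to cells in 96-well plates for 48 hours; endpoints were derived by simple linear interpolation of the resulting dose-response curve. The concentration for 50% growth inhibition is given as GI50. TGI is the concentration that stops growth completely.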

Assays:
Test in all cases: NCI anticancer screen, dose series, 48 h
[1] = test system: SK-MEL-5 melanoma
[2] = test system: HCC-2998 colon
[3] = test system: KM12 colon
[4] = test system: OVCAR-5 ovarian
[5] = test system: SNB-75 CNS
[6] = test system: M14 melanoma
[7] = test system: MDA-MB-435
[8] = test system: OVCAR-4 ovarian
[9] = test system: MCF7 breast
[10] = test system: RXF 393 renal

Row | Compound | TGI [1] | TGI [2] | TGI [3] | TGI [4] | TGI [5] | TGI [6] | TGI [7] | TGI [8] | TGI [9] | TGI [10] | GI50 [6]
1 | CC1=NN(c2cc(Cl)c(S(=O)(=O)O)cc2Cl)C2(C1)C(Cl)C(=O)N2c1nc2ccccc2s1 (stereo not given) | > 100 µM | > 100 µM | > 100 µM | > 100 µM | > 100 µM | > 100 µM | > 100 µM | > 100 µM | > 100 µM | > 100 µM | –
2 | O=C(O)C1C2OC(C(Br)C2Br)C1C(=O)O (stereo not given) | > 100 µM | – | > 100 µM | > 100 µM | > 100 µM | > 100 µM | > 100 µM | > 100 µM | > 100 µM | > 100 µM | –
3 | CCOC(=O)/C=C(/OCC)[C@@H]1C(C(=O)c2ccc(Cl)cc2)[C@@H]1/C(=C\C(=O)OCC)OCC (stereo not given in full) | > 59.9 µM | – | > 51.3 µM | > 100 µM | > 100 µM | > 100 µM | > 83.8 µM | > 100 µM | > 100 µM | > 78.5 µM | –
4 | CC[P+](c1ccccc1)(N(C)C)N(C)C | > 100 µM | > 100 µM | > 100 µM | > 100 µM | > 100 µM | > 100 µM | > 100 µM | > 100 µM | > 100 µM | > 100 µM | –
5 | CCOC(=O)/C(=C/c1cn(C(C)=O)c2ccccc12)P(=O)(OC)OC | > 100 µM | – | – | > 100 µM | 60.1 µM | > 100 µM | > 100 µM | > 100 µM | > 100 µM | – | –
6 | C[C@]12CC[C@H]3[C@@H](CCC4=C/C(=N/OCCN5CCCCC5)CC[C@@]43C)[C@@H]1CC[C@@H]2O | 26.4 µM | 27.4 µM | 21.8 µM | 40.7 µM | 22.4 µM | 23.8 µM | 20.2 µM | 58.9 µM | 26.8 µM | 40.8 µM | –
7 | CN(CC(=O)O)c1ncc2c(n1)-c1ccccc1CC2 | > 100 µM | – | > 100 µM | > 100 µM | > 100 µM | > 100 µM | > 100 µM | > 100 µM | > 100 µM | > 100 µM | –
8 | CCOC(=O)NCC(=O)NCC(=O)NCC(N)=O | > 100 µM | > 100 µM | > 100 µM | > 100 µM | – | > 100 µM | > 100 µM | > 100 µM | > 100 µM | > 100 µM | –
9 | COC(=O)c1c2c(cc3c1CC1(Cc4cc5c(cc4C1)CCCC5)C3)CCCC2 | > 100 µM | > 100 µM | > 100 µM | > 100 µM | – | > 100 µM | > 100 µM | > 100 µM | > 100 µM | 67.3 µM | –
10 | COc1ccccc1-c1cc(=O)c2cccnc2[nH]1 | > 100 µM | > 100 µM | > 100 µM | > 100 µM | – | > 100 µM | 60.5 µM | > 100 µM | > 100 µM | > 100 µM | –
11 | C=C(CCC(=O)N(CCc1c[nH]c2ccccc12)C(=O)c1ccccc1CSCC)C(=O)OC | > 100 µM | > 95.4 µM | > 100 µM | > 100 µM | > 100 µM | > 100 µM | > 100 µM | > 100 µM | > 100 µM | > 100 µM | –
12 | O=c1c2ccccc2n2nnc3ccc(NCCNCCO)c1c32 | 4.37 µM | 3.74 µM | 7.44 µM | 7 µM | 7.54 µM | 5.2 µM | 10.8 µM | 6.34 µM | 14.9 µM | 7.24 µM | –
13 | COc1cc(C2C3=C(NC(=O)C2C#N)c2ccc4ccccc4c2OCC3)cc(OC)c1OC (stereo not given) | > 100 µM | 65.2 µM | > 100 µM | 42.3 µM | 34.5 µM | > 100 µM | > 100 µM | > 100 µM | > 100 µM | 32.9 µM | –
14 | CCOC(=O)CSc1nc(-c2ccc(Cl)cc2)c(C#N)c(=O)[nH]1 | > 100 µM | > 100 µM | > 100 µM | > 100 µM | > 100 µM | > 100 µM | > 100 µM | > 100 µM | > 100 µM | > 100 µM | –
15 | Cc1cc(C)n(C(=CC(=O)C(Cl)Cl)n2nc(C)cc2C)n1 | 20.3 µM | – | 24 µM | 14.5 µM | > 100 µM | 13.3 µM | 11 µM | > 100 µM | > 100 µM | – | –
16 | CC(=O)CCN1CC2CN=NC2(C#N)C1 (stereo not given) | > 100 µM | > 100 µM | > 100 µM | > 100 µM | > 100 µM | > 100 µM | > 100 µM | > 100 µM | > 100 µM | > 100 µM | > 100 µM
17 | O=c1[nH]c2ccccc2c(=O)n1/N=C\c1ccccc1O | > 100 µM | – | > 100 µM | > 100 µM | > 100 µM | > 100 µM | > 100 µM | – | > 100 µM | – | –
18 | Clc1ccc(-c2nn3c(COc4ccc(OCc5nnc6sc(-c7ccc(Cl)cc7)nn56)c(Cl)c4)nnc3s2)cc1 | 80.2 µM | 44.9 µM | > 100 µM | 71.7 µM | 29.8 µM | > 100 µM | > 100 µM | > 100 µM | > 100 µM | 44.1 µM | –
19 | Nc1ccc2c3c1cccc3c(=O)n1c3ccc(Cc4ccc5c(c4)nc4c6ccc(N)c7cccc(c(=O)n54)c76)cc3nc21 | > 100 µM | > 100 µM | > 100 µM | > 100 µM | > 100 µM | > 100 µM | > 100 µM | > 100 µM | > 100 µM | > 100 µM | –
20 | CC(=O)N1CN2C(=O)CCC2c2cc(C)ccc21 (stereo not given) | > 100 µM | > 100 µM | > 100 µM | > 100 µM | > 100 µM | > 100 µM | > 100 µM | > 100 µM | > 100 µM | > 100 µM | –
21 | CN(C)CCCNC(=O)N/N=C/c1ccccn1 | > 10 µM | > 10 µM | > 10 µM | > 10 µM | > 10 µM | > 10 µM | – | > 10 µM | > 10 µM | > 10 µM | –
22 | c1ccc(CN2CCC(CNc3ncnc4ccccc34)C2)cc1 (stereo not given) | 82 µM | – | > 100 µM | > 100 µM | > 100 µM | 35.4 µM | > 100 µM | > 100 µM | > 100 µM | > 100 µM | –
